In patent US8114911B2, “Prostaglandin compounds for the treatment of obesity” (Sucampo AG, priority 2003, dated 2012):
Entries after “also recorded” stand apart in the source; their conditions may differ.

Assay: Body weight change in volunteers after 21 days of oral test capsules
Assay type: in vivo, human
Settings: oral capsules before meals, 24, 48 or 72 μg of test substance per day for 21 days, body weight 3 weeks after initiation vs before, placebo control group increased
Description: 13,14-dihydro-15-keto-16,16-difluoro-PGE1 was used as the test substance. Test capsule for oral administration containing 24 μg of the test substance and placebo capsule made from inert ingredients which was identical to the test capsule were prepared.
Volunteers were divided into 4 groups. The test groups received 24, 48 and 72 μg of the test substance per day respectively and the control group received the placebo. All volunteers were instructed to take one capsule before each meal (morning-, day- and evening-time) everyday for 21 days. Test group I (27 volunteers) received 24 μg of the test substance per day by taking the test capsule at the morning time and the placebo capsule at each of the day and evening times; test group II (32 volunteers) received 48 μg of the test substance per day by taking the test capsule at each of the morning and evening times and the placebo capsule at the day time; test group III (32 volunteers) received 72 μg of the test substance by taking the test capsule three times per day. Control group (33 volunteers) received the placebo capsule every time. Volunteers were instructed to take each capsule with 8 ounces of water prior to eating a meal. Body weight was measured before and 3 weeks after the initiation of the administration.

## CCCCC(F)(F)C(=O)CCC1C(O)CC(=O)C1CCCCCCC(=O)O (stereo not shown) [13,14-dihydro-15-keto-16,16-difluoro-PGE1]
  changes of body weight from the pre-values: body weight reductions were observed in all test groups; also recorded: decreased in a dose dependent manner
